Where two headings read alike, the source gives them in different places.
Legend:
P. aeruginosa AUMC-Pa-3 = experiment: microbe, parasite or virus in culture
Method in brief: (§1)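 Growth inhibition was scored by eye after an 18 h, 37 °C incubation of drug-bacteria mixtures in Mueller-Hinton broth. Inoculum suspension held approximately 1 × 10^6 CFU/mL before 1:1 mixing.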

P. aeruginosa AUMC-Pa-4 = experiment: microbe, parasite or virus in culture
Method in brief: as §1

P. aeruginosa AUMC-Pa-5 = experiment: microbe, parasite or virus in culture; conditions: strain AUMC-Pa-5
Method in brief: as §1

P. aeruginosa AUMC-Pa-6 = experiment: microbe, parasite or virus in culture; conditions: strain AUMC-Pa-6
Method in brief: as §1

P. aeruginosa PAO1 = experiment: microbe, parasite or virus in culture; conditions: PAO1; for FICI / MICac: the MIC for the antibiotic in the combination: S3 Table
Method in brief: as §1

P. aeruginosa ATCC27853 = experiment: microbe, parasite or virus in culture; set-up: MICa: MIC of the antibiotic / MICac: MIC of the antibiotic in the combination: unit not given beside the values
Method in brief: as §1

P. aeruginosa NR-31040 = experiment: microbe, parasite or virus in culture; set-up: MICa: MIC of the antibiotic / MICac: MIC of the antibiotic in the combination: unit not given beside the values
Method in brief: as §1

P. aeruginosa NR-31041 = experiment: microbe, parasite or virus in culture; set-up: MICa: MIC of the antibiotic / MICac: MIC of the antibiotic in the combination: unit not given beside the values
Method in brief: as §1

P. aeruginosa PA14 = experiment: microbe, parasite or virus in culture; set-up: MICa: MIC of the antibiotic / MICac: MIC of the antibiotic in the combination: unit not given beside the values
Method in brief: as §1

P. aeruginosa PAK = experiment: microbe, parasite or virus in culture; set-up: MICa: MIC of the antibiotic / MICac: MIC of the antibiotic in the combination: unit not given beside the values
Method in brief: as §1

P. aeruginosa HM-214 = conditions: strain HM-214; antibiotic + D-11 (MICb/MICbc 128/4)
Method in brief: as §1

P. aeruginosa AUMC-Pa-1 = conditions: strain AUMC-Pa-1; antibiotic + D-11 (MICb/MICbc 128/4)
Method in brief: as §1

P. aeruginosa AUMC-Pa-2 = conditions: strain AUMC-Pa-2; antibiotic + D-11 (MICb/MICbc 64/4)
Method in brief: as §1

[1] = system: clinical P. aeruginosa isolates; experiment: microbe, parasite or virus in culture; conditions: Pseudomonas aeruginosa, 18 h, antibiotic alone
Method in brief: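 Broth microdilution per CLSI in MHB, two-fold drug dilutions mixed with an equal volume of bacteria at about 1 × 10^6 CFU/mL. After 18 h at 37 °C, MIC taken as the lowest concentration with no visible growth; run in triplicate.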

[2] = antibiotic + D-11 (MICb/MICbc 64/4)
[3] = antibiotic alone, unit not given
[4] = with D-11 at MICbc 4, unit not given

MIC (P. aeruginosa AUMC-Pa-3; Pseudomonas aeruginosa, AUMCPA3, 18 h, read-out: MICa: MIC of the antibiotic): 8 µM
MICac: MIC of the antibiotic in the combination (P. aeruginosa AUMC-Pa-3; strain AUMC-Pa-3, with D-11 at MICbc 4, unit not given): 0.031
MIC (P. aeruginosa AUMC-Pa-4; Pseudomonas aeruginosa, AUMCPA4, 18 h, read-out: MICa: MIC of the antibiotic): 16 µM
MICac: MIC of the antibiotic in the combination (P. aeruginosa AUMC-Pa-4; strain AUMC-Pa-4, with D-11 at MICbc 4, unit not given): 0.5
MICa: MIC of the antibiotic (P. aeruginosa AUMC-Pa-5; [3]): 32
MICac: MIC of the antibiotic in the combination (P. aeruginosa AUMC-Pa-5; [4]): 16
MICa: MIC of the antibiotic (P. aeruginosa AUMC-Pa-6; [3]): 16
MICac: MIC of the antibiotic in the combination (P. aeruginosa AUMC-Pa-6; [4]): 2
MIC (P. aeruginosa PAO1; Pseudomonas aeruginosa, PAO1, 18 h, read-out: MICa: the MIC of antibiotics, S3 Table, antibiotic alone): 32 µM
MICac: the MIC for the antibiotic in the combination (P. aeruginosa PAO1; with 2 μM D-11): 0.125 µM
MICac: the MIC for the antibiotic in the combination (P. aeruginosa PAO1; with 4 μM D-11): 0.03125 µM
MIC (P. aeruginosa ATCC27853; Pseudomonas aeruginosa, ATCC27853, 18 h, read-out: MICa: MIC of the antibiotic): 32 µM
MICac: MIC of the antibiotic in the combination (P. aeruginosa ATCC27853; strain ATCC27853, with D-11 at MICbc 4, unit not given): 0.031
MIC (P. aeruginosa NR-31040; Pseudomonas aeruginosa, NR31040, 18 h, read-out: MICa: MIC of the antibiotic): 8 µM
MICac: MIC of the antibiotic in the combination (P. aeruginosa NR-31040; strain NR-31040, with D-11 at MICbc 4, unit not given): 0.5
MIC (P. aeruginosa NR-31041; Pseudomonas aeruginosa, NR31041, 18 h, read-out: MICa: MIC of the antibiotic): 16 µM
MICac: MIC of the antibiotic in the combination (P. aeruginosa NR-31041; strain NR-31041, with D-11 at MICbc 4, unit not given): 0.063
MIC (P. aeruginosa PA14; Pseudomonas aeruginosa, PA14, 18 h, read-out: MICa: MIC of the antibiotic): > 128 µM
MICac: MIC of the antibiotic in the combination (P. aeruginosa PA14; strain PA14, with D-11 at MICbc 4, unit not given): 8
MIC (P. aeruginosa PAK; Pseudomonas aeruginosa, 18 h, read-out: MICa: MIC of the antibiotic): 16 µM
MICac: MIC of the antibiotic in the combination (P. aeruginosa PAK; strain PAK, with D-11 at MICbc 4, unit not given): 0.125
MIC ([1]; read-out: Antibiotic sensibility (MIC) of clinical P. aeruginosa isolate AUMC-Pa-1, strain AUMC-Pa-1): 16 µM
MIC ([1]; read-out: Antibiotic sensibility (MIC) of clinical P. aeruginosa isolate AUMC-Pa-2, strain AUMC-Pa-2): 8 µM
MIC ([1]; read-out: Antibiotic sensibility (MIC) of clinical P. aeruginosa isolate AUMC-Pa-3, strain AUMC-Pa-3): 8 µM
MIC ([1]; read-out: Antibiotic sensibility (MIC) of clinical P. aeruginosa isolate AUMC-Pa-4, strain AUMC-Pa-4): 16 µM
MIC ([1]; read-out: Antibiotic sensibility (MIC) of clinical P. aeruginosa isolate AUMC-Pa-5, strain AUMC-Pa-5): 32 µM
MIC ([1]; read-out: Antibiotic sensibility (MIC) of clinical P. aeruginosa isolate AUMC-Pa-6, strain AUMC-Pa-6): 16 µM
MIC ([1]; read-out: Antibiotic sensibility (MIC) of clinical P. aeruginosa isolate HM-214, strain HM-214): 8 µM
MIC ([1]; read-out: Antibiotic sensibility (MIC) of clinical P. aeruginosa isolate NR-31040, strain NR-31040): 8 µM
MIC ([1]; read-out: Antibiotic sensibility (MIC) of clinical P. aeruginosa isolate NR-31041, strain NR-31041): 16 µM
Compound: CO[C@H]1/C=C/O[C@@]2(C)Oc3c(C)c(O)c4c(O)c(c(/C=N/N5CCN(C6CCCC6)CC5)c(O)c4c3C2=O)NC(=O)/C(C)=C\C=C\[C@H](C)[C@H](O)[C@@H](C)[C@@H](O)[C@@H](C)[C@H](OC(C)=O)[C@@H]1C [Rifapentine]
FICI (P. aeruginosa AUMC-Pa-3; strain AUMC-Pa-3, antibiotic + D-11 (MICb/MICbc 128/4)): 0.035
FICI (P. aeruginosa AUMC-Pa-4; strain AUMC-Pa-4, antibiotic + D-11 (MICb/MICbc 128/4)): 0.063
FICI (P. aeruginosa AUMC-Pa-5; [2]): 0.563
FICI (P. aeruginosa AUMC-Pa-6; [2]): 0.188
FICI (P. aeruginosa PAO1; antibiotic + 2 μM D-11): 0.066
FICI (P. aeruginosa PAO1; antibiotic + 4 μM D-11): 0.126
FICI (P. aeruginosa ATCC27853; strain ATCC27853, antibiotic + D-11 (MICb/MICbc 32/4)): 0.133
FICI (P. aeruginosa NR-31040; strain NR-31040, antibiotic + D-11 (MICb/MICbc 128/4)): 0.094
FICI (P. aeruginosa NR-31041; strain NR-31041, antibiotic + D-11 (MICb/MICbc 64/4)): 0.066
FICI (P. aeruginosa PA14; strain PA14, antibiotic + D-11 (MICb/MICbc 128/4)): 0.063
FICI (P. aeruginosa PAK; strain PAK, antibiotic + D-11 (MICb/MICbc 64/4)): 0.070
FICI (P. aeruginosa HM-214): 0.063
FICI (P. aeruginosa AUMC-Pa-1): 0.035
FICI (P. aeruginosa AUMC-Pa-2): 0.066

Reference: article PMC8445441, “Elucidating the mechanism by which synthetic helper peptides sensitize Pseudomonas aeruginosa to multiple antibiotics” (PLoS Pathogens, 2021)
